The target of this assay is T1, human Kv3.1 channels (hKv3.1) (Homo sapiens, UniProt P48547).
T1 construct: expressed in transfected cells
T1 sequence (P48547 1-511): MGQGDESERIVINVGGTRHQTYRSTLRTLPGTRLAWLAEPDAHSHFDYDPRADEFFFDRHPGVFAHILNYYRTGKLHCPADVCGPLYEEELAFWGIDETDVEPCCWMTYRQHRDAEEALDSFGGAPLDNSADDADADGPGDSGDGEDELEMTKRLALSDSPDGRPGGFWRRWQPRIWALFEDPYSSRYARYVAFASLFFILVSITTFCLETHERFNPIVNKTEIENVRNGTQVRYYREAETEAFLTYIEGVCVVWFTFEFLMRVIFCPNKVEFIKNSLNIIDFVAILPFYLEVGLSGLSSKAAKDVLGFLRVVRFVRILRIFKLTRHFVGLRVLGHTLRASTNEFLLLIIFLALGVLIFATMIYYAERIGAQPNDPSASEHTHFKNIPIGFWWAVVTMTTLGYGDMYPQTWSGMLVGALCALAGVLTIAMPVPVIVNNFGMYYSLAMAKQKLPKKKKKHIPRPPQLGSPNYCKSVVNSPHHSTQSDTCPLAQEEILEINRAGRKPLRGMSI
Briefly: Kv3.1 channel modulation, IonWorks Quattro planar array electrophysiology. The assay is classed as cell-based. The conditions noted are these: for Kv3.1 pEC50 / EC50 / Kv3.1 max R %: HEK-293 cells expressing human Kv3.1; for Kv3.1 pEC50 / EC50: currents at −15 mV voltage step, normalised to 50 microM reference compound and vehicle; for EC50: read-out: Kv3.1 pEC50 (converted); for Kv3.1 max R %: normalised to maximum effect of 50 microM reference compound. A general note: Patch clamp records ionic current or voltage across a cell membrane.

pEC50: −log10 of the molar value. Where two headings read alike, the source gives them in different places.

As for `CC[C@H]1NC(=O)N(c2ccc(Oc3ccc(C)c4c3C3(CC3)CO4)nc2N)C1=O` [Example 2, (5R)-3-[2-amino-6-(7-methylspiro[2H-benzofuran-3,1′-cyclopropane]-4-yl)oxy-3-pyridyl]-5-ethyl-imidazolidine-2,4-dione], the “Kv3.1 pEC50” value is listed as 6.3, the EC50 is 0.501 µM and the “Kv3.1 max R %” value is 161%.

For `CC1(C)NC(=O)N(c2ccc(Oc3cccc4c3C3(CC3)CO4)nc2N)C1=O` [Example 3, 3-(2-amino-6-spiro[2H-benzofuran-3,1′-cyclopropane]-4-yloxy-3-pyridyl)-5,5-dimethyl-imidazolidine-2,4-dione], the “Kv3.1 pEC50” value was 6.3, the EC50 is 0.501 µM and the “Kv3.1 max R %” value turned out to be 159%.

As to `CC[C@H]1NC(=O)N(c2ccc(Oc3cccc4c3C3(CC3)CO4)nc2N)C1=O` [Example 4, (5R)-3-(2-amino-6-spiro[2H-benzofuran-3,1′-cyclopropane]-4-yloxy-3-pyridyl)-5-ethyl-imidazolidine-2,4-dione], the “Kv3.1 pEC50” value is on record as 6.0, the EC50 was 1 µM and the “Kv3.1 max R %” value is on record as 159%.

Regarding `CC1(C)NC(=O)N(c2ccc(Oc3cccc4c3C(C)(C)CO4)nc2N)C1=O` [Example 5, 3-[2-amino-6-[(3,3-dimethyl-2H-benzofuran-4-yl)oxy]-3-pyridyl]-5,5-dimethyl-imidazolidine-2,4-dione], the EC50 was 0.631 µM and the “Kv3.1 max R %” value was 152%.

For the compound `COc1cccc(Oc2ccc(N3C(=O)NC(C)(C)C3=O)c(N)n2)c1` [Example 6, 3-[2-amino-6-(3-methoxyphenoxy)-3-pyridyl]-5,5-dimethyl-imidazolidine-2,4-dione], the EC50 was 12.6 µM and the “Kv3.1 max R %” value came to 89%.

`Cc1ccc(Oc2ccc(N3C(=O)NC(C)(C)C3=O)c(N)n2)cc1OC(F)(F)F` [Example 7, 3-[2-amino-6-[4-methyl-3-(trifluoromethoxy)phenoxy]-3-pyridyl]-5,5-dimethyl-imidazolidine-2,4-dione]: the “Kv3.1 pEC50” value amounted to 5.6, the EC50 is 2.51 µM and the “Kv3.1 max R %” value was found to be 135%.

For the compound `CC[C@H]1NC(=O)N(c2ccc(Oc3ccc(C)c(OC(F)(F)F)c3)nc2N)C1=O` [Example 8, (5R)-3-[2-amino-6-[4-methyl-3-(trifluoromethoxy)phenoxy]-3-pyridyl]-5-ethyl-imidazolidine-2,4-dione], the “Kv3.1 pEC50” value stood at 5.5, the EC50 was 3.16 µM and the “Kv3.1 max R %” value is reported as 137%.

As for `CC1(C)NC(=O)N(c2ccc(Oc3ccc(C#N)c(OC(F)(F)F)c3)nc2N)C1=O` [Example 10, 4-[[6-amino-5-(4,4-dimethyl-2,5-dioxo-imidazolidin-1-yl)-2-pyridyl]oxy]-2-(trifluoromethoxy)benzonitrile], the “Kv3.1 pEC50” value was 5.6, the EC50 was 2.51 µM and the “Kv3.1 max R %” value came out at 113%.

In the case of `CC[C@H]1NC(=O)N(c2ccc(Oc3ccc(C#N)c(OC(F)(F)F)c3)nc2N)C1=O` [Example 11, 4-[[6-amino-5-[(4R)-4-ethyl-2,5-dioxo-imidazolidin-1-yl]-2-pyridyl]oxy]-2-(trifluoromethoxy)benzonitrile], the “Kv3.1 pEC50” value was found to be 5.5, the EC50 is 3.16 µM and the “Kv3.1 max R %” value is listed as 161%.

For the compound `CC(C)c1cc(Oc2ccc(N3C(=O)NC(C)(C)C3=O)c(N)n2)ccc1C#N` [Example 12, 4-[[6-amino-5-(4,4-dimethyl-2,5-dioxo-imidazolidin-1-yl)-2-pyridyl]oxy]-2-isopropyl-benzonitrile], the EC50 was 2 µM and the “Kv3.1 max R %” value was determined as 175%.

`CC[C@H]1NC(=O)N(c2ccc(Oc3ccc(C#N)c(C(C)C)c3)nc2N)C1=O` [Example 13, 4-[[6-amino-5-[(4R)-4-ethyl-2,5-dioxo-imidazolidin-1-yl]-2-pyridyl]oxy]-2-isopropyl-benzonitrile]: the “Kv3.1 pEC50” value was 5.5, the EC50 was 3.16 µM and the “Kv3.1 max R %” value amounted to 161%.

Consider `Cc1ccc(Oc2ccc(N3C(=O)NC(C)(C)C3=O)c(N)n2)c2c1OCC2(C)C` [Example 14, 3-[2-amino-6-[(3,3,7-trimethyl-2H-benzofuran-4-yl)oxy]-3-pyridyl]-5,5-dimethyl-imidazolidine-2,4-dione], for which the EC50 is 0.501 µM and the “Kv3.1 max R %” value was found to be 165%.

A word on the pEC50: it is the EC50 on a negative log10 scale, so that one unit is a factor of ten. Lower therefore signals a high EC50. As for `Cc1ccc(Oc2ccc(N3C(=O)NC(C)(C)C3=O)cn2)c2c1OCC21CC1` [Reference Example 1, reference compound], the pEC50 was 5.60.

Turning to `Cc1ccc(Oc2ccc(N3C(=O)NC(C)(C)C3=O)c(C)n2)c2c1OCC21CC1` [Reference Example 3, reference compound], the EC50 is 1.58 µM.

Turning to `CC1(C)NC(=O)N(c2ccc(Oc3cccc4c3C3(CC3)CO4)nc2)C1=O` [Reference Example 4, reference compound], the EC50 is 31.6 µM.

`COc1nc(Oc2cccc3c2C2(CC2)CO3)ccc1N1C(=O)NC(C)(C)C1=O` [Reference Example 5, reference compound]: the EC50 was 3.98 µM.

In turn, `Cc1ccc(Oc2ccc(N3C(=O)NC(C)(C)C3=O)cn2)cc1OC(F)(F)F` [Reference Example 6, reference compound] gave a negative-log EC50 (pEC50) of 5.00.

Turning to `COc1nc(Oc2ccc(C)c(OC(F)(F)F)c2)ccc1N1C(=O)NC(C)(C)C1=O` [Reference Example 7, reference compound], the EC50 was 12.6 µM.

As for `Cc1ccc(Oc2ccc(N3C(=O)NC(C)(C)C3=O)c(C)n2)cc1OC(F)(F)F` [Reference Example 8, reference compound], the EC50 is 6.31 µM.

For the compound `COc1nc(Oc2ccc(C#N)c(OC(F)(F)F)c2)ccc1N1C(=O)NC(C)(C)C1=O` [Reference Example 9, reference compound], the EC50 is 12.6 µM.

For `CC[C@H]1NC(=O)N(c2ccc(Oc3ccc(C)c4c3C3(CC3)CO4)nc2OC)C1=O` [Reference Example 11, reference compound], the EC50 was 1.26 µM.

With `CC[C@H]1NC(=O)N(c2ccc(Oc3ccc(C)c4c3C3(CC3)CO4)nc2C)C1=O` [Reference Example 12, reference compound], the EC50 was 0.631 µM.

Take `CC[C@H]1NC(=O)N(c2ccc(Oc3cccc4c3C3(CC3)CO4)nc2OC)C1=O` [Reference Example 14, reference compound]: the EC50 was 2 µM.

As to `CC[C@H]1NC(=O)N(c2ccc(Oc3ccc(C)c(OC(F)(F)F)c3)nc2)C1=O` [Reference Example 15, reference compound], the EC50 was 2.51 µM.

For `CC[C@H]1NC(=O)N(c2ccc(Oc3ccc(C)c(OC(F)(F)F)c3)nc2OC)C1=O` [Reference Example 16, reference compound], the EC50 was 7.94 µM.

With `CC[C@H]1NC(=O)N(c2ccc(Oc3ccc(C)c(OC(F)(F)F)c3)nc2C)C1=O` [Reference Example 17, reference compound], the EC50 was 5.01 µM.

Consider `CC[C@H]1NC(=O)N(c2ccc(Oc3ccc(C#N)c(OC(F)(F)F)c3)nc2OC)C1=O` [Reference Example 18, reference compound], for which the EC50 is 10 µM.

With `CC[C@H]1NC(=O)N(c2ccc(Oc3ccc(C#N)c(C(C)C)c3)nc2)C1=O` [Reference Example 19, reference compound], the EC50 is 1.26 µM.

Values taken from patent US20260199309A1, “COMPOUNDS FOR THE TREATMENT OF CENTRA NERVOUS SYSTEM DISORDERS” (Autifony Therapeutics Limited, priority 2022, published 2026).
